Measured values as given in patent US20250295656A1, “COMBINATION OF LURBINECTEDIN AND IMMUNE CHECKPOINT INHIBITORS” (priority 2020, published 2025).

Key:
[1] = tested on: eukaryotic translation initiation factor 2 alpha (eIF2α); test: eIF2α phosphorylation by immunofluorescence with phosphoneoepitope-specific antibody; type: cell-based, human; conditions: U2OS; 10, 50 or 100 nM; 6 hours
Method: Human osteosarcoma U2OS cells were treated with 10, 50 or 100 nM lurbinectedin (Lurbi) for 6 hours. Thapsigargin (Thaps, 3 μM) was used as a positive control. The cells were fixed with 3.7% PFA and DNA was stained with 1 μM Hoechst 33342. Following the phosphorylation of the eukaryotic translation initiation factor 2 alpha (eIF2a) was assessed with phosphoneoepitope-specific antibody and was monitored by means of automated microscopy as an increase in cytoplasmic fluorescence intensity. (a,b) The level of transcription was measured in U2OS cell treated as above with Lurbi. The transcription inhibitor actinomycin D (ActD) was used as a control. The cells were fixed as above and following the colocalization of nucleolin and fibrillarin was assessed as an indicator for transcriptional activity (c,d) Scale bar equals 10 μm and bar charts depict mean values±SD of quadruplicate assessments (*p<0.01; *p<0.001, two-tailed Student's t test).
In a systematic screening campaign, the capacity of lurbinectedin to induce immunogenic cell death in cancer cells was assessed in human osteosarcoma U2OS cells stably expressing fluorescent biosensors for the detection of CALR-relocation (as a surrogate marker for CALR surface exposure), HMGB1 release and Type I IFN responses together with U2OS WT cells stained with the ATP-sensitive dye quinacrine. […]

[2] = tested on: Murine fibrosarcoma MCA205 cells; test: In vitro cell death of MCA205 cells prepared for vaccination; type: cell-based, mouse; conditions: 1 μM lurbinectedin for 24 h
[3] = tested on: U2OS cells stably expressing HMGB1-GFP; test: HMGB1 release (loss of nuclear HMGB1-GFP fluorescence); type: cell-based, human; conditions: lurbinectedin 1 nM to 1 μM, MTX 1 and 3 μM, medium to late time points
Method: (§1) (a) Human osteosarcoma U2OS (a), human breast cancer HCC70 (b) human colon cancer HT29 cells (c) and murine methylcholantrene-induced fibrosarcoma MCA205 cells (d) were treated with lurbinectedin (Lurbi, 1 nM, 10 nM, 100 nM and 1 μM) for the indicated times. Subsequently, the cells were stained with 1 μM Hoechst 33342 and 1 μM propidium iodide and assessed for the loss of viability by automated image acquisition. Images were segmented, cellular debris was excluded and the number of cells with normal nuclear morphology was enumerated. Cells stably expressing CALR-GFP were treated as above. Following the cells were fixed with 3.7% of PFA, stained with 1 μM Hoechst 33342 and assessed by automated image acquisition. Images were segmented, cellular debris was excluded and CALR-GFP granularity (a surrogate marker of CALR exposure) was evaluated in the cytoplasmic region of cells with normal nuclear morphology. Wild type cells were treated as above and then assessed for cytoplasmic quinacrine granularity (after staining with the ATP-sensitive dye quinacrine together with Hoechst 33342) by automated image acquisition, segmentation and analysis. Cells stably expressing HMGB1-GFP were treated as above and then assessed for nuclear HMGB1-GFP fluorescence intensity. The cells were fixed and stained with Hoechst 33342 and images were acquired, segmented and analyzed. […]

[4] = tested on: U2OS cells stably expressing CALR-GFP; test: CALR-GFP granularity (surrogate marker of CALR exposure); type: cell-based, human; conditions: lurbinectedin 1 nM to 1 μM, MTX 1 and 3 μM, 4-32 hours, vs untreated controls
Method: as §1

SMILES: COc1ccc2[nH]c3c(c2c1)CCN[C@]31CS[C@@H]2c3c(OC(C)=O)c(C)c4c(c3[C@H](COC1=O)N1[C@@H]2[C@H]2c3c(cc(C)c(OC)c3O)C[C@@H]([C@@H]1O)N2C)OCO4 [lurbinectedin]
- phosphorylation of eIF2α [1]: dose-dependent phosphorylation
- cell death [2]: approximately 70%
- nuclear GFP signal (HMGB1-GFP) [3]: significant decrease
- CALR-granularity [4]: time- and dose-dependent increase
